Data taken from ChEMBL document CHEMBL1201862, “PubChem BioAssay data set” (2004).
The source made the active and inactive calls.

Key:
[1] = target: T1, G-protein coupled receptor 35 (Homo sapiens, UniProt Q9HC97); test: SAR Analysis for the identification of Selective Antagonists of ERK1/2 Activity in GPR35-Overexpressing U2OS Cells. [Related pubchem assays: 2079, 2058 ]; assay type: functional, cell-based
[2] = cytotoxicity in HEK-293T cells, dose response, cytotoxicity control for BCR NF-kB inhibitor project, luminescence, B-cell screen hits (AID 489021); assay type: functional, cell-based;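 further: HEK-293T cells carrying an NF-kB luciferase reporter; cells exposed to compound for about 14 hours before viability readout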
[3] = target: G-protein coupled receptor 55 (Homo sapiens, UniProt Q9Y2T6); test: GPR55 antagonists, SAR follow-up, counter-screen for GPR35 antagonist project, imaging, image-based (AID 2397); assay type: functional
G-protein coupled receptor 55, sequence (Q9Y2T6 whole entry): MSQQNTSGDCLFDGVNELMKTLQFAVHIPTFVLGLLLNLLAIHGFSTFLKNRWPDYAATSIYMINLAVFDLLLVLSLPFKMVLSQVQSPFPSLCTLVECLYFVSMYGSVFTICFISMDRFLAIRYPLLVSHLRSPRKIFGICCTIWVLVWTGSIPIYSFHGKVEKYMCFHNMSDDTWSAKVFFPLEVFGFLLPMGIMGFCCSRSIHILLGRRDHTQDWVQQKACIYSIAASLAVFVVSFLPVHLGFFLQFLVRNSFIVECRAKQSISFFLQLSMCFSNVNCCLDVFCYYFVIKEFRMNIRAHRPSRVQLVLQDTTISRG

[4] = target: T1, G-protein coupled receptor 35; test: GPR35 antagonists blocking zaprinast-driven arrestin recruitment, primary screen, imaging, U2OS, beta-arrestin-GFP, zaprinast agonist (AID 2058); assay type: functional;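 further: antagonist potency meaning inhibition of agonist-induced arrestin redistribution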
[5] = growth induction of Burl-1 ts yeast mutant, dose response, counter-screen for SUMOylation pathway inhibitor project, whole organism, S. cerevisiae, luminescence (AID 463199); assay type: functional
Cytochrome P450 2C9 [6] = target: T2, Cytochrome P450 2C9 (Homo sapiens, UniProt P11712)
T2 sequence (P11712 whole entry): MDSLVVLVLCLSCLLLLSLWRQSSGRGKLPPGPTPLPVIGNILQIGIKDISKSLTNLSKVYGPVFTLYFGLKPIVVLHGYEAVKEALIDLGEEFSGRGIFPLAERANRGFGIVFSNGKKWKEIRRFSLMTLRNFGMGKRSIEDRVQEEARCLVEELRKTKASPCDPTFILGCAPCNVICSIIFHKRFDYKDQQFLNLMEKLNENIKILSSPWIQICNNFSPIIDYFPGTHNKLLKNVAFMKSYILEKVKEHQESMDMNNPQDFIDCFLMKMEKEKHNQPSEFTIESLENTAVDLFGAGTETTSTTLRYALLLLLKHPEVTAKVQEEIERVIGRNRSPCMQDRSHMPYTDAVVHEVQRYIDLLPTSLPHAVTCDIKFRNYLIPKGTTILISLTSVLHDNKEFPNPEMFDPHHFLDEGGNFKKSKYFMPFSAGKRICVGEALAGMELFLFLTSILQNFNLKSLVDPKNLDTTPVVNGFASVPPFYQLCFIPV

Trypsin = Trypsin (Sus scrofa, UniProt P00761); test: porcine trypsin inhibitors, dose response, selectivity assay for Rce1 protease inhibitor project, biochemical, quenched peptide fluorescence, cherry-pick (AID 488789)
Trypsin, sequence (P00761 whole entry): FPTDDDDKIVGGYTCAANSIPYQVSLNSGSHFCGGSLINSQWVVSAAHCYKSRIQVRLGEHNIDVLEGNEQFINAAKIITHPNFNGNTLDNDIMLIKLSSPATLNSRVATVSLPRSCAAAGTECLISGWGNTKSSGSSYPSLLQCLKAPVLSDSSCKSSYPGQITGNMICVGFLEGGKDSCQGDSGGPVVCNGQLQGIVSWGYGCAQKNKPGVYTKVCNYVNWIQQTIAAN

CAAX prenyl protease 1 = CAAX prenyl protease 1 (Saccharomyces cerevisiae S288c, UniProt P47154); test: Ste24 protease inhibitors, dose response, biochemical, S. cerevisiae, plate reader, cherry-pick (AID 488815)
CAAX prenyl protease 1, sequence (P47154 whole entry): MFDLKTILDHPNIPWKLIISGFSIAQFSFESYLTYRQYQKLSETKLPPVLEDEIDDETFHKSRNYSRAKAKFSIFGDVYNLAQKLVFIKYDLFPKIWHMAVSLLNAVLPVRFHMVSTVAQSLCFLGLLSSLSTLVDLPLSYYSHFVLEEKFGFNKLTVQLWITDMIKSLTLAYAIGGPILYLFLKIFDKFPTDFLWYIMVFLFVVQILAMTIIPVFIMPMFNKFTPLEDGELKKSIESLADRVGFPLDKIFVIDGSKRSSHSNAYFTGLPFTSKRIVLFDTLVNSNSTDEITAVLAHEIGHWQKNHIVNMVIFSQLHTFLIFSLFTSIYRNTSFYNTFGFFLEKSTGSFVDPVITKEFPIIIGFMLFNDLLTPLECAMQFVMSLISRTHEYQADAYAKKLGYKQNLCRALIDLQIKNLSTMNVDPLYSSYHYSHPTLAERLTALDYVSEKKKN

[7] = target: T3, Kappa-type opioid receptor (Homo sapiens, UniProt P41145); test: SAR analysis of Antagonists of the Kappa Opioid Receptor (KOR) using an Image-Based Assay - Set 2. [Related pubchem assays (depositor defined):AID1777, AID1785, AID1786, AID1966, AID2133, AID2136, AID2284, AID2285, AID2348]; assay type: functional
T3 sequence (P41145 whole entry): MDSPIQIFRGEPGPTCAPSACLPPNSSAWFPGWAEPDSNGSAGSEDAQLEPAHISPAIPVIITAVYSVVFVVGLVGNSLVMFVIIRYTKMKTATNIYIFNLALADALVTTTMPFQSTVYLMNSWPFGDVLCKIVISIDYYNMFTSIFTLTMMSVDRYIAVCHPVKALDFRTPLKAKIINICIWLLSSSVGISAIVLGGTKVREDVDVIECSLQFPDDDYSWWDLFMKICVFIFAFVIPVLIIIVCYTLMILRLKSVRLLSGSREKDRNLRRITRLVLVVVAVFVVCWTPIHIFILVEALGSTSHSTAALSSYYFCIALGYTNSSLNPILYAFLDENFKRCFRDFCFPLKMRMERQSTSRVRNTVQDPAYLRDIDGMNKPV

[8] = target: T3, Kappa-type opioid receptor; test: SAR analysis of small molecule agonists of the kappa opioid receptor via a luminescent beta-arrestin assay - Set 2. [Related pubchem assays (depositor defined):AID1777, AID1785, AID1786, AID1966, AID2133, AID2136, AID2284, AID449737]; assay type: functional
[9] = target: T4, Delta-type opioid receptor (Homo sapiens, UniProt P41143); test: SAR Analysis of Antagonists of the DOR Receptor using an Image-Based Assay - Set 2. [Related pubchem assays (depositor defined):AID1777, AID1785, AID1786, AID1966, AID2133, AID2136, AID2284, AID2285, AID2357]; assay type: functional
T4 sequence (P41143 whole entry): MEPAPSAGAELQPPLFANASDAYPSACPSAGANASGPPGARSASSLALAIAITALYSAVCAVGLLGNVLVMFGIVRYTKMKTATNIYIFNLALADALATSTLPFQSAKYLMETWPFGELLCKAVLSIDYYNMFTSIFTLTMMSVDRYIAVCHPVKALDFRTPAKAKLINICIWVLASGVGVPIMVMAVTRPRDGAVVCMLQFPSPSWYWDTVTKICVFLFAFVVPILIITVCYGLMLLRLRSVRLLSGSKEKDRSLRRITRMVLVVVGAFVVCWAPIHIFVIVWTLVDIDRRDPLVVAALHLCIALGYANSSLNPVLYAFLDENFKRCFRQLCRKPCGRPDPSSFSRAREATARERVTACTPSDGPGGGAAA

Mu-type opioid receptor [10] = target: T5, Mu-type opioid receptor (Homo sapiens, UniProt P35372); test: SAR Analysis of Antagonists of the MOR Receptor using an Image-Based Assay - Set 2. [Related pubchem assays (depositor defined):AID1777, AID1785, AID1786, AID1966, AID2133, AID2136, AID2284, AID2285, AID2420]; assay type: functional
T5 sequence (P35372 whole entry): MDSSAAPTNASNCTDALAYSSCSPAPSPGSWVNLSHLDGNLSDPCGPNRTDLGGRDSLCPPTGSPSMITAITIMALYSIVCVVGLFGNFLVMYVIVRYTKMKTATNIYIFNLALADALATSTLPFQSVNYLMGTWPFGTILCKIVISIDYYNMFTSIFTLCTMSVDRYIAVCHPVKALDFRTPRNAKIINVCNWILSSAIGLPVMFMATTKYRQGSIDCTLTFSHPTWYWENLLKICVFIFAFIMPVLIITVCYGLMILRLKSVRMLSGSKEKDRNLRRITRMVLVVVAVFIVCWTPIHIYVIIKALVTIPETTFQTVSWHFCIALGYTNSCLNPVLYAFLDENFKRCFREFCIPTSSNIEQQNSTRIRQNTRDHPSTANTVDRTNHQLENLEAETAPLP

[11] = target: T3, Kappa-type opioid receptor; test: SAR analysis of Agonists of the Kappa Opioid Receptor (KOR) using an Image-Based Assay - Set 2. [Related pubchem assays (depositor defined):AID1777, AID1786, AID1966, AID2133, AID2136, AID2284, AID2285, AID2359]; assay type: functional
[12] = target: T4, Delta-type opioid receptor; test: SAR Analysis of Agonists of the DOR Receptor using an Image-Based Assay - Set 2. [Related pubchem assays (depositor defined):AID1777, AID1785, AID1786, AID1966, AID2133, AID2136, AID2284, AID2285, AID2370]; assay type: functional
Mu-type opioid receptor [13] = target: T5, Mu-type opioid receptor; test: SAR Analysis of Agonists of the MOR Receptor using an Image-Based Assay - Set 2. [Related pubchem assays (depositor defined):AID1777, AID1785, AID1786, AID1966, AID2133, AID2136, AID2284, AID2285, AID2352]; assay type: functional
Cytochrome P450 2C19 = Cytochrome P450 2C19 (Homo sapiens, UniProt P33261); test: Cytochrome panel assay with activity outcomes. Panel member name: p450-cyp2c19 Compounds with AC50 equal or less than 10 uM are considered active; assay type: functional
Cytochrome P450 2C19, sequence (P33261 whole entry): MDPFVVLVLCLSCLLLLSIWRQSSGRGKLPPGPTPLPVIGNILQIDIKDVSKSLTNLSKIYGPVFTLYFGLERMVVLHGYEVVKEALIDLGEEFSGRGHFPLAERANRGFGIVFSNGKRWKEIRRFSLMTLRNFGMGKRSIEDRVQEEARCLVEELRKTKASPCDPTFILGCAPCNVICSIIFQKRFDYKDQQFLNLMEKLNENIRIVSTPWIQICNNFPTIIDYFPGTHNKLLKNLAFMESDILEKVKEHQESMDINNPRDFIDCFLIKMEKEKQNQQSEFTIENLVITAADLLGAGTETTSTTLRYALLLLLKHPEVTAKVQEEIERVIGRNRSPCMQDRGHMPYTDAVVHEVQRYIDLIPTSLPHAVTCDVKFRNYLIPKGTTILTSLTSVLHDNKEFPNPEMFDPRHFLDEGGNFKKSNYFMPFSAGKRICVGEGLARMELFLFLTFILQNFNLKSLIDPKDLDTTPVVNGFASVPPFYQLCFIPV

Cytochrome P450 2C9 [14] = target: T2, Cytochrome P450 2C9; remark: listed apart in the source
Cytochrome P450 1A2 = target: T6, Cytochrome P450 1A2 (Homo sapiens, UniProt P05177);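 further: PubChem cytochrome P450 panel assay, CYP1A2 panel member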
T6 sequence (P05177 whole entry): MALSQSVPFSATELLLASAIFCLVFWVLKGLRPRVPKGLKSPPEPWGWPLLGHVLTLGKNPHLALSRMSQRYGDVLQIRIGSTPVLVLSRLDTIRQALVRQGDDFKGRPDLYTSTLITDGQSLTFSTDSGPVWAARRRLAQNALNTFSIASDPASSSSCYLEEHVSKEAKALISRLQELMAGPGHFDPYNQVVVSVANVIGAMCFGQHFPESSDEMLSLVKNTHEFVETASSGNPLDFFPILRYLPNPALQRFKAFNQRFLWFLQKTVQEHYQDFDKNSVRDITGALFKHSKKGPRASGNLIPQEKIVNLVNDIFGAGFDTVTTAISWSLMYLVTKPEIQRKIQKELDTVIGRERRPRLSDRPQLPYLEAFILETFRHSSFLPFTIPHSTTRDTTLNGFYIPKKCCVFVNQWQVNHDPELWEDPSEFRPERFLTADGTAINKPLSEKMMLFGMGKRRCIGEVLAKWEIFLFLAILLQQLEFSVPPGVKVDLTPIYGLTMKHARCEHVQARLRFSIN

Streptococcus = test: Group A Streptococcus viability loss, dose response, counter-screen for streptokinase expression inhibitor project, luminescence, BacTiterGlo (AID 1915); assay type: functional, organism-based;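 further: potency for reduction of bacterial viability or growth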
Streptokinase A = target: T7, Streptokinase A (Streptococcus pyogenes serotype M1, UniProt P10520); test: S. pyogenes streptokinase expression inhibitors, potency, dose response, plasminogen activation absorbance, OD405 (AID 1914); assay type: functional, Streptococcus pyogenes M1 GAS;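 further: secreted streptokinase activity via plasminogen activation per viability signal from cell pellet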
T7 sequence (P10520 whole entry): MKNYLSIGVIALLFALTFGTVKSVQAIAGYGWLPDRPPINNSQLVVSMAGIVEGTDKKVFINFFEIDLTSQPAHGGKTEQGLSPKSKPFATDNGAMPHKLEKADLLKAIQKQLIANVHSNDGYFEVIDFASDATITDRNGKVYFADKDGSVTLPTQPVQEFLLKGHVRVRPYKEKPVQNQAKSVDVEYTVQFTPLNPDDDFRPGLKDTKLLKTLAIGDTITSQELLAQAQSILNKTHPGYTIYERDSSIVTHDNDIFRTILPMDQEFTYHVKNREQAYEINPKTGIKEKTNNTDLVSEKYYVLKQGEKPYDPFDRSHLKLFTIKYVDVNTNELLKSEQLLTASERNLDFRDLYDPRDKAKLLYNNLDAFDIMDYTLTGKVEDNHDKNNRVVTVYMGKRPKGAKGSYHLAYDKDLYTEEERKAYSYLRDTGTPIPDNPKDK

Cytochrome P450 2D6 = Cytochrome P450 2D6 (Homo sapiens, UniProt P10635);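 further: CYP2D6 member of a cytochrome P450 panel assay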
Cytochrome P450 2D6, sequence (P10635 whole entry): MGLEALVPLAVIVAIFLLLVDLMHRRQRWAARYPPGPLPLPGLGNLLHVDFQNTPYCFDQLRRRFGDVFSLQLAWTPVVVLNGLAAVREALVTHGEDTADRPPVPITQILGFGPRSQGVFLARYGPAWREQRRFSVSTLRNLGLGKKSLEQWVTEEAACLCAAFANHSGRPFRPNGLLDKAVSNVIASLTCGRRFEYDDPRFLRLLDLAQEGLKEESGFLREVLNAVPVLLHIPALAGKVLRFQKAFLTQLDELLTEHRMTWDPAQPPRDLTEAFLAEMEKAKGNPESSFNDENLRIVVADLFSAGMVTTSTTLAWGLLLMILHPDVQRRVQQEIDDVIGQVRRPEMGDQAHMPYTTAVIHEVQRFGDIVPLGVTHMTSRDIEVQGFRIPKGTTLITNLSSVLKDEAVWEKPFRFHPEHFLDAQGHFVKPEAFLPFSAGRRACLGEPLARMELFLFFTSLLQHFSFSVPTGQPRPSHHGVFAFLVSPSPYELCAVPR

[15] = tested on: Streptococcus sp. 'group A'; test: growth inhibition of control SK(-) GAS strain, dose response, counter-screen for streptokinase expression inhibitor project, luminescence, kanamycin, BacTiterGlo, confirmation (AID 1900); assay type: functional, organism-based

T1 sequence (Q9HC97 whole entry): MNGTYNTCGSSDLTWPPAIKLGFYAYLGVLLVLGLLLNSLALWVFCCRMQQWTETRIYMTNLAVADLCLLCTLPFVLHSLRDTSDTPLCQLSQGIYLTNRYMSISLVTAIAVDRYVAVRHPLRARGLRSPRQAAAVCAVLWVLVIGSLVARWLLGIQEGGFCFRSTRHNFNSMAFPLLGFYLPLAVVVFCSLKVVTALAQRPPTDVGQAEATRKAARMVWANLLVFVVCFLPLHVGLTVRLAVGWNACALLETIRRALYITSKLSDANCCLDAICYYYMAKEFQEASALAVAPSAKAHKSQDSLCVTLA

With `Cc1ccc(/C=C2\SC(=S)N(CCCC(=O)Nc3ccc(O)cc3)C2=O)cc1` the IC50 [1] was 0.253 µM (active), the IC50 [2] was > 80 µM (inactive) and the IC50 [3] was > 32 µM (inactive). For the same compound, the IC50 [4] was 0.744 µM (active).
For `O=C(c1cc(F)ccc1F)C1CCCN(C(=O)c2ccc3nccnc3c2)C1` (configuration not stated), the AC50 [5] was 78.3 µM (active).
For `COc1ccc(-c2cc3ccccc3n2CC(O)CNCCO)cc1` (configuration not stated), the AC50 (Cytochrome P450 2C9 [6]) was 17.8 µM (inconclusive), the AC50 (Trypsin) was 17.3 µM (active) and the AC50 (CAAX prenyl protease 1) was 11.5 µM (active).
For `COc1ccc(CSc2nnc(-c3ccccn3)n2Cc2ccco2)cc1`, the IC50 [7] was > 32 µM (inactive), the EC50 [8] was 7.69 µM (active) and the IC50 [9] was > 32 µM (inactive). The IC50 (Mu-type opioid receptor [10]) was > 32 µM (inactive), the EC50 [11] was 12.4 µM (inactive) and the EC50 [12] was > 32 µM (inactive). The EC50 (Mu-type opioid receptor [13]) was > 32 µM (inactive).
In the case of `CC1(C)N=C(N)N=C(Nc2ccccc2)N1`, the AC50 (Cytochrome P450 2C19) is reported as “inactive”, the AC50 (Cytochrome P450 2C9 [14]) is reported as “inconclusive” and the AC50 (Cytochrome P450 1A2) is reported as “inactive”. The EC50 (Streptococcus) was > 150 µM (not active), the EC50 (Streptokinase A) was > 150 µM (not active) and the AC50 (Cytochrome P450 2D6) was 39.8 µM (inconclusive). For the same compound, the EC50 [15] was 1.52 µM (active).
